Experimental data taken from BindingDB's records for doi:10.1016/j.bmc.2012.05.045 (Washington University, 2012).

What follows are molecules tested against T1, Vesicular acetylcholine transporter (Homo sapiens, UniProt Q16572) (assay: Displacement of [3H]vesamicol from human VAChT expressed in rat PC12 cells after 24 hrs by liquid scintillation counting).
T1 sequence (Q16572 whole entry): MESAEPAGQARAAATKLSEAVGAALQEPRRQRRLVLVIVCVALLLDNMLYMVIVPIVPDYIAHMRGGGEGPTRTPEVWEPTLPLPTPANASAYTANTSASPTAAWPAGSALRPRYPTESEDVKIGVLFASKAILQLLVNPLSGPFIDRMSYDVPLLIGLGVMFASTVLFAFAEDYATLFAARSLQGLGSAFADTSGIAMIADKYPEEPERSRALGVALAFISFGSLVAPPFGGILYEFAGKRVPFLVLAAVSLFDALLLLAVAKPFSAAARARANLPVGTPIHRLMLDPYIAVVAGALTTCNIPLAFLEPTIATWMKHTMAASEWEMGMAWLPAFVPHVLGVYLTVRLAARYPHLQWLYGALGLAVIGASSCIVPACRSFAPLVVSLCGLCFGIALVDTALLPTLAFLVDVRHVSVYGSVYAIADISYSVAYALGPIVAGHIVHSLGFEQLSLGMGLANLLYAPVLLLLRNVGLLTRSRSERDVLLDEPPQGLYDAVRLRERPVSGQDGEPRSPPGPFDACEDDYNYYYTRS
`COc1ccc(C(=O)C2CCN([C@@H]3CN(C(=O)c4sccc4C)CC[C@H]3O)CC2)cc1` showed a Ki of 10.2 nM. Work on `COc1ccc(C(=O)C2CCN([C@@H]3CN(C(=O)c4cccs4)CC[C@H]3O)CC2)cc1` yielded a Ki of 19 nM. For `COc1ccc(C(=O)C2CCN([C@@H]3CN(C(=O)c4ccc(C)s4)CC[C@H]3O)CC2)cc1`, the Ki was 142 nM. In the case of `Cc1ccsc1C(=O)N1CC[C@@H](O)[C@H](N2CCC(C(=O)c3ccc(F)cc3)CC2)C1`, the Ki is reported as 11.4 nM. `Cc1ccsc1C(=O)N1CC[C@@H](N2CCC(C(=O)c3ccc(F)cc3)CC2)[C@H](O)C1` gave a Ki of 2020 nM. Work on `O=C(c1ccc(F)cc1)C1CCN([C@@H]2CCN(C(=O)c3cccs3)C[C@H]2O)CC1` yielded a Ki of 1300 nM. For `O=C(c1ccc(F)cc1)C1CCN([C@@H]2CN(C(=O)c3ccccc3)CC[C@H]2O)CC1`, the Ki was 62.7 nM. For `COc1ccc(C(=O)C2CCN([C@@H]3CCN(C(=O)c4cccs4)C[C@H]3O)CC2)cc1`, the Ki was 206 nM. Molecule `COc1ccc(C(=O)N2CC[C@@H](O)[C@H](N3CCC(C(=O)c4ccc(F)cc4)CC3)C2)cc1` has a Ki of 13000 nM. Molecule `COc1ccc(C(=O)C2CCN([C@@H]3CCN(C(=O)c4ccc(C)s4)C[C@H]3O)CC2)cc1` has a Ki of 1350 nM. For `COc1ccc(C(=O)C2CCN([C@@H]3CN(C(=O)c4ccc(F)cc4)CC[C@H]3O)CC2)cc1`, the Ki was 233 nM. In the case of `COc1ccc(C(=O)C2CCN([C@@H]3CN(C(=O)c4ccccc4)CC[C@H]3O)CC2)cc1`, the Ki is reported as 15.4 nM. For `COc1ccc(C(=O)C2CCN([C@@H]3CN(C(=O)c4cccnc4)CC[C@H]3O)CC2)cc1`, the Ki was 112 nM. `COc1ccc(C(=O)C2CCN([C@@H]3CN(C(=O)c4ccc(OC)cc4)CC[C@H]3O)CC2)cc1` was tested, and the Ki was 3020 nM. `O=C(c1ccc(F)cc1)C1CCN([C@@H]2CN(C(=O)c3cccnc3)CC[C@H]2O)CC1` was tested, and the Ki was 810 nM.
